The text below walks through data of BindingDB's records for doi:10.1038/nchembio.2306 (AbbVie Inc, 2017).

Assay [1] addresses T1, Polycomb protein EED (Homo sapiens, UniProt O75530). Description: TR-FRET Binding Assay. To be noted: pH 7.5; 25 °C. The procedure:
The following buffer was used to set up the binding reactions: 20 mM Tris-HCl pH 7.5, 200 mM NaCl, 0.01% Tween-20, 10 μM DTT, and 0.05% BSA, with the DTT and BSA added fresh before initiating the binding assay. […] The reactions were then incubated for 1 h at 25 °C in a humidified chamber to obtain thermodynamic equilibrium before detection on the PerkinElmer Envision plate reader using a LanthaScreen TR-FRET protocol.

In assay [2] the target is T1, Polycomb protein EED. The assay can be described thus: Radioligand Binding Assay. To be noted: 23 °C. The procedure:
30 μl of reaction mixtures were incubated at 23 °C for 70 min. To stop the enzymatic reactions, 150 μl of 10% trichloroacetic acetic acid (TCA) was added, mixed and transferred to filter plates (Millipore; cat. # MSFBN6B10). Plates were centrifuged at 2,000 r.p.m. (Allegra X-15R - Beckman Coulter, Inc.) for 2 min followed by two additional 10% TCA washes and one ethanol wash followed by centrifugation.

Assay [3] concerns the target T1, Polycomb protein EED. Description: EED A-395 Peptide Competition Assay. To be noted: pH 7.5; 25 °C. How it is done: The following buffer was used to set up the binding reactions: 20 mM Tris-HCl pH 7.5, 200 mM NaCl, 0.01% Tween-20, 10 μM DTT, and 0.05% BSA, with the DTT and BSA added fresh before initiating the binding assay. […] The reactions were then incubated for 1 h at 25 °C in a humidified chamber before detection on the PerkinElmer Envision plate reader using an AlphaLISA/Screen protocol.

T1 sequence (O75530 whole entry): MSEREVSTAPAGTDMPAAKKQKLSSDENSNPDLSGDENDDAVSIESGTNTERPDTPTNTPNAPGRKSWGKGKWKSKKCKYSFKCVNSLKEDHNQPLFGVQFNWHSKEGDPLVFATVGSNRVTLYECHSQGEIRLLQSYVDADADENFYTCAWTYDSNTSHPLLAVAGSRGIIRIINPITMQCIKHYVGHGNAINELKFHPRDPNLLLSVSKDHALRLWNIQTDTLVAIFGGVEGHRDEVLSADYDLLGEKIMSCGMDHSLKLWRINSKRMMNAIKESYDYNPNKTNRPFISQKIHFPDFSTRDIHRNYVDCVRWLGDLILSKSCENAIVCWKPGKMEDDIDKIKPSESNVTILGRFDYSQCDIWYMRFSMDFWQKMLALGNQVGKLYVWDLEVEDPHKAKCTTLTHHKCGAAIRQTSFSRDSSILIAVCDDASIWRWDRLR

Consider `Cc1cccc(F)c1CN1C[C@H](c2cn(C)c3ccccc23)[C@@H](N(C)C)C1` (racemic) [rac-(3R,4S)-1-(2-fluoro-6-methylbenzyl)-N,N-dimethyl-4-(1-methyl-1H-indol-3-yl)pyrrolidin-3-amine (2)], for which the Ki (commonly a dissociation constant, usually derived from enzyme kinetics or from competition with a known ligand) in assay [1] stood at 4 nM. On the same count and under the same terms, for `CN(C)[C@H]1CN([C@H]2CCc3cccc(F)c32)C[C@@H]1c1cn(C)c2ccccc12` [(3R,4S)-1-[(1S)-7-fluoroindan-1-yl]-N,N-dimethyl-4-(1-methylindol-3-yl)pyrrolidin-3-amine (3)] the value was 1 nM.

In the case of `CN(C)[C@@H]1CN(Cc2ccccc2)C[C@H]1c1ccc(N2CCN(S(C)(=O)=O)CC2)cc1` [A-395N (6)], the figures for the IC50 in assay [2] and in assay [3] were > 50000 nM and 1320 nM, respectively. Also, in assay [1], affinity was put at a Ki of 1830 nM.
